According to ChEMBL document CHEMBL2094260, “Malaria Box Tuberculosis Screening Data”:
Converted amounts (≈) assume the structure as drawn.

Experiments:
[1] = system: Mycobacterium tuberculosis; experiment: MMV: CRC and MIC90 against Mtb (replicating); assay type: functional
[2] = system: Mycobacterium tuberculosis; experiment: MMV: Screen against Mtb, single point, replicating, at 25uM; assay type: functional
[3] = MMV: Cytotoxicity CRC and LD50 against HepG2; assay type: toxicity, cell-based; conditions: human, HepG2 cells; read-out: LD50 (the source's name)
[4] = system: Mycobacterium tuberculosis; experiment: MMV: Screen against Mtb, single point, non replicating, at 25uM; assay type: functional
[5] = system: Mycobacterium tuberculosis; experiment: MMV: CRC and MIC90 against Mtb (non replicating); assay type: functional

Row | Structure (SMILES) | MIC90 [1] | inhibition at 25 µM [2] | CC50 [3] | inhibition at 25 µM [4] | MIC90 [5]
1 | O=C(Nc1ccc(Cl)c(Cl)c1)Nc1ccc(Cl)c(Cl)c1 | 3.89 µM (≈ 1.36 µg/mL) | 92.6% | 6.5 µM | 99.8% | 10.3 µM (≈ 3.61 µg/mL)
2 | COc1ccc(Nc2nc(N/N=C/c3ccc(O)cc3)nc(Nc3ccc([N+](=O)[O-])cc3)n2)cc1 |  | 15.3% |  | 31.8% | 
3 | Nc1nc(Nc2cccc(F)c2)nc2ccccc12 |  | 13.4% |  | 9.12% | 
4 | COc1ccc(/C=C2/SC(=Nc3ccccc3)NC2=O)cc1 |  | 15.9% |  | 24.4% | 
5 | COc1ccc(-c2nc(N3CCN(C(=O)C4CCCCC4)CC3)c3c4c(sc3n2)CCCC4)cc1 |  | 14.2% |  | 12.7% | 
6 | O=C(NC1CCN(Cc2ccccc2)CC1)c1cc2nc(-c3ccc(Cl)s3)cc(C(F)(F)F)n2n1 |  | 20.1% |  | 15.3% | 
7 | Cc1sc(NC(=O)c2ccccc2)c(C(c2cccs2)N2CCN(c3ccccc3)CC2)c1C (stereo unspecified) |  | 7.6% |  | 13% | 
8 | Cc1sc(NC(=O)c2ccco2)c(C(c2cccnc2)N2CCC(Cc3ccccc3)CC2)c1C (stereo unspecified) |  | 21.7% |  | -1.7% | 
9 | CCOC(=O)c1c(C)n(-c2ccccc2)c2ccc(OC(=O)c3cc(OC)c(OC)c(OC)c3)cc12 |  | 22.2% |  | 6.46% | 
10 | COc1cc(C(=O)Nc2nc3c(cc4c5c(cccc53)CC4)s2)cc(OC)c1OC |  | -3.53% |  | 17.8% | 
11 | COc1ccc(CCN2C(=O)c3[nH]nc(-c4cc(Cl)c(C)cc4O)c3C2c2ccccc2F)cc1 (stereo unspecified) |  | -0.705% |  | 16.2% | 
12 | N#Cc1nc(Cc2cccc3ccccc23)oc1N1CCN(C(c2ccccc2)c2ccccc2)CC1 |  | 7.13% |  | 18.9% | 
13 | O=C(NNc1cc(N2CCCC2)nc(N2CCCC2)n1)c1ccccc1 |  | 12% |  | 30.6% | 
14 | COC(=O)c1ccc(Cl)c2c1C1C=CCC1C(c1cccc3ccccc13)N2 (stereo unspecified) |  | 12.1% |  | -4.9% | 
15 | COc1ccc(C2c3ccc4ccccc4c3Oc3ncn(CCCn4ccnc4)c(=N)c32)cc1OC (stereo unspecified) |  | 46.8% |  | 11.1% | 
16 | CN(N=O)C1=C(NC2CCCCC2)C(=O)c2ccccc2C1=O |  | -2.12% |  | 7.53% | 
17 | O=C(CCc1ccccc1)c1ccccc1OCC(O)CN1CCCCC1 (stereo unspecified) |  | 12.9% |  | 0.25% | 
18 | O=C(Nc1ccc(Br)cc1)Nc1cccc(Cl)c1 | 44.6 µM (≈ 14.5 µg/mL) | 59.6% | 18.6 µM | 38.6% | > 100 µM

Row | Structure (SMILES) | MIC90 [1] | inhibition at 25 µM [2] | CC50 [3] | inhibition at 25 µM [4] | MIC90 [5]
19 | Cc1ccc(Nc2nc(-c3ccccn3)cs2)cc1 | 50.7 µM (≈ 13.6 µg/mL) | 59.3% |  | 23% | > 100 µM
20 | Cc1cc(NCCN2CCCCC2)c2ccc3ccccc3c2n1 | 39.1 µM (≈ 12.5 µg/mL) | 71.1% | 2.04 µM | 15.5% | > 100 µM
21 | OC1=C2C(=Nc3ccccc3SC2c2ccccc2)c2ccccc21 (stereo unspecified) |  | 8.39% |  | 14.1% | 
22 | COc1cc(C(=O)Nc2ccc(-c3nc4ccccc4[nH]3)cc2)cc(OC)c1OC |  | 27% |  | 19.1% | 
23 | Cc1nc2ccccc2c(O)c1CC=C(Cl)Cl | 14.3 µM (≈ 3.83 µg/mL) | 91% | 98.8 µM | 0.782% | > 100 µM
24 | CCOc1ccc(N2C(N)=NC(N)=NC2(C)C)cc1 |  | -0.705% |  | 8.77% | 
25 | COc1cccc(Nc2nc(N)c3ccccc3n2)c1 |  | 6.04% |  | 11.4% | 
26 | Cc1ccc(C(=O)c2oc3ccc4c(C)cc(=O)oc4c3c2C)cc1 |  | 1.18% |  | 5.4% | 
27 | COC(=O)c1ccc(C2C3=C(O)CC(c4ccc(F)cc4)CC3=Nc3ccccc3N2C(=O)c2ccccc2)cc1 (stereo unspecified) |  | 28.3% |  | 18.9% | 
28 | CCCCCCc1cc2cc(-c3csc(C=Cc4ccccc4)n3)c(=O)oc2cc1O |  | -0.392% |  | 9.83% | 
29 | O=C(CCl)NCCOc1ccc(Cl)cc1Cl |  | 35% |  | 25.3% | 
30 | Oc1ccc(-c2nc(-c3ccc4oc5ccc(-c6[nH]c(-c7ccc(O)cc7)nc6-c6ccccc6)cc5c4c3)c(-c3ccccc3)[nH]2)cc1 |  | 19.2% |  | 13% | 
31 | CC(Oc1ccc(NC(=O)c2cccs2)cc1)C(=O)c1ccc(Cl)cc1 (stereo unspecified) |  | 2.74% |  | -0.638% | 
32 | CCOc1ccc(CN2CCN(CC(O)COc3ccc(OCC(O)CN4CCN(Cc5ccc(OCC)cc5)CC4)cc3)CC2)cc1 (stereo unspecified) |  | 13.2% |  | 17.5% | 
33 | CCCCNc1nc(NC(C)(C)C)nc(NC(C)(C)C)n1 |  | 32.8% |  | 42.1% | 
34 | COc1ccc(CNC(=O)c2cc3c(=O)n4ccccc4nc3n(CCc3ccccc3)c2=N)cc1 |  | 20.3% |  | 6.82% | 
35 | O=C(NC1CCN(Cc2ccccc2)CC1)c1cc(C(=O)NC2CCN(Cc3ccccc3)CC2)cc(C(=O)NC2CCN(Cc3ccccc3)CC2)c1 |  | 7.92% |  | 3.44% | 
36 | COc1ccc(CCn2c(=N)c(C(=O)NCc3cccnc3)cc3c(=O)n4cccc(C)c4nc32)cc1 |  | 4.47% |  | 8.77% | 
